The values that follow come from patent publication US9695195B2, “5-HT3 receptor antagonists” (Takeda Pharmaceutical Company Limited, priority 2012, dated 2017).

Experiment [1] concerns subchronic PCP-induced impairment in cognition memory. The experiment in a line: Rodent novel object recognition (NOR) assay in phencyclidine-induced cognitive deficits modeling schizophrenia. The format is in vivo, rat. Conditions: PCP-treated rats. An excerpt: The aim of this study was to investigate the ability of the compounds of the invention to improve subchronic PCP-induced impairment in cognition memory using the NOR task in the rat, a paradigm of relevance to cognition in schizophrenia. Adult male Sprague-Dawley rats (250-350 g; Harlan, USA) were used for the experiments. Animal were acclimated to the facility for 7 days prior to experimentation. Seven groups of 14 animals per group were used for the experiment. One group of animals received vehicle (0.9% saline twice daily) and the remaining six groups received PCP (2.5 mg/kg, s.c. twice daily) for 7 days, followed by 5-days drug free. On the test day, the animals were allowed to acclimate to the testing room for 30 min prior to initiation of experiments. Experiments were carried out in a white plexiglass chamber, designated as experimental arena. The arena was placed in a dark experimental room that was illuminated by a halogen lamp, providing a dim light to the arena.
Animals were placed in the arena for a 5 minute period to freely explore the test chamber in the absence of objects (habituation). Animals were then returned to their home cage immediately upon completion of habituation for a 120 min period. (1R,3R,5S)-8-Methyl-8-azabicyclo[3.2.1]octan-3-yl 1-(2,2,2-trifluoroethyl)-1H-indole-3-carboxylate (0.1, 1, 10 mg/kg s.c.), or vehicle (veh, saline) was administered 120 min prior to T1 and galantamine (5 mg/kg, i.p.) was administered 30 min prior to T1. Animals were returned to the arena which contained two identical objects (plastic balls) placed at one end of the arena (acquisition, T1), and allowed to explore for a 5 min period. The time spent exploring the two objects was recorded. Animals were once again returned to the home cage for a period of 120 min (ITI).
ITI was followed by the retention phase (T2) where one of the objects presented in the first trial was replaced by a novel object and animals were allowed to explore for an additional 5 min period. Again, the time spent exploring the two objects was recorded.
For the retention phase, the differences between the time spent exploring the familiar object and the novel object were examined. All sessions were recorded and scored blindly for the time exploring objects. Exploration is defined as touching the object or directing nose towards object at a distance less that 2 cm. A minimal exploration criterion was used such that only animals with exploration time of greater than 5 seconds per object were included.
Comparisons of all treatment groups were conducted using a one-way ANOVA followed by a Bonferroni's post hoc test for multiple comparisons.

The target in experiment [2] is 5HT3a receptor (Homo sapiens (Human), UniProt P46098). The experiment in a line: Inhibition of Ca flux activity of 5HT3 in vitro assay. Type of experiment: cell-based. Particulars: 5HT3a expressed in HEK-293T cells; 5HT 216 nM; approximate values. As to the method: The 5HT3 antagonist activity of the compounds of the invention was determined by measuring the ability of the compounds to inhibit the calcium flux activity of […] receptor expressed in HEK-293T cells. HEK-293T cells were transfected with the 5HT3a expression construct using Xtreme Gene 9 (Roche) in 150 mm tissue culture treated plates and incubated for 24 hours at 37° C. Cells were then split and plated at a density of 60K cells/well in poly-lysine coated, black 96-well plates with clear bottoms (BD BioSciences) and incubated overnight at 37° C. Growth media was removed and cells loaded with 200 uL calcium indicator dye in HBSS containing 20 mM HEPES (Calcium 5 Assay kit, Molecular Devices) and incubated at 37° C. for 1 hour. While cells were incubating, the 10× antagonist and agonist/antagonist addition plates were made. For 10× antagonist plate: half log serial dilutions (final concentrations range from 10^−7 through 10^−10 with the bottom well a negative, no ligand control) were made from test compounds in DMSO at a 1000× concentration and then diluted to 10× in HBSS/20 mM HEPES. For addition plate: 5HT was diluted to 100× in HBSS/20 mM HEPES (final concentration in the assay-216 nM) and 15 uL was added to each well of the addition plate, 15 uL of 10× compound was also added to the addition plate, and finally 120 uL of HBSS/20 mM HEPES (for a total of 150 uL). Cells were then removed from the incubator and equilibrated to room temperature for 10 minutes, then 22.5 uL of 10× test compounds were added in triplicate to the plates and incubated at room temperature for 10 minutes (Tropisetron was used as a positive control in every assay). Test plate and addition plate were loaded into the FlexStation III (Molecular Devices), and using the fluidics, 22.5 uL compound additions were made (at t=˜17 seconds), and fluorescence was measured for 90 seconds, reading every 2.2 seconds. Data sets were analyzed as max minus min using Software Max Pro (Molecular Devices). IC50 curves were generated using non-linear regression in GraphPad Prism.
5HT3a receptor, sequence (P46098 24-478): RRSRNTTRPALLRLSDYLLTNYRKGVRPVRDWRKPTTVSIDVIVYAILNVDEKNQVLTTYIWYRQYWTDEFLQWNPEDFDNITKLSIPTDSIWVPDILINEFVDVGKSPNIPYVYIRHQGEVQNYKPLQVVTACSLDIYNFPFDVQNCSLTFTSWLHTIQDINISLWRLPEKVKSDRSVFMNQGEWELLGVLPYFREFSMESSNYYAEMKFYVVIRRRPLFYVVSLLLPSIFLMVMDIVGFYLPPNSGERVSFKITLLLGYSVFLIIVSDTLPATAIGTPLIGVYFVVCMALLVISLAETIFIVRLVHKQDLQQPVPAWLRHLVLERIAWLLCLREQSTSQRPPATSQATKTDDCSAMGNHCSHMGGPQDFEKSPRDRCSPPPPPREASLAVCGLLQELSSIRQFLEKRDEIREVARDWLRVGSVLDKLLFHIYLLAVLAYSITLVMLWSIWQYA

Take `COc1ccc2c3c1O[C@H]1C[C@@H](O)C=C[C@@]31CCN(C)C2` [Galantamine, galantamine, reference compound]: in experiment [1] (galantamine 5 mg/kg i.p., 2 h ITI), the “discrimination between familiar and novel objects” value is given as “statistically significant discrimination”.
`CN1[C@@H]2CC[C@H]1C[C@@H](OC(=O)c1cn(CC(F)(F)F)c3ccccc13)C2`: the “discrimination between familiar and novel objects” value in experiment [1] (0.1 mg/kg s.c.) is reported as “did not demonstrate a statistically significant discrimination”; in experiment [1] (1 mg/kg s.c.) it was “demonstrated a statistically significant discrimination”; in experiment [1] (10 mg/kg s.c.), “demonstrated a statistically significant discrimination”.
In experiment [2], `CN1[C@@H]2COC[C@H]1C[C@@H](OC(=O)c1cn(CC(F)(F)F)c3ccc(F)cc13)C2` [Compound 32, (1R,5S,7S)-9-methyl-3-oxa-9-azabicyclo[3.3.1]nonan-7-yl 5-fluoro-1-(2,2,2-trifluoroethyl)-1H-indole-3-carboxylate, 2,2,2-trifluoroacetate] registered an IC50 of 1.38 nM. This lies in the single-digit nanomolar range.

Broadly, the IC50 is the point on the concentration scale where inhibition reaches its midpoint. Higher therefore signals weaker potency.
